Publication PMC5931096, “A Phase I study of the novel immunomodulatory agent PG545 (pixatimod) in subjects with advanced solid tumours” (British Journal of Cancer, 2018)

Experiment: Phase I dose-escalation: safety, tolerability, DLT and MTD of weekly 1-h IV infusion
Format: in vivo
Protocol: The study was an open-label, multicentre, phase 1 dose-escalation study using a 3 + 3 design. The primary objective was to determine the MTD of weekly administered PG545 via IV infusion. Secondary objectives were to characterize safety, tolerability, clinical activity, PK and PD biomarkers.
Patients continued treatment until disease progression, unacceptable toxicity or withdrawal (either voluntarily or investigator-decision).
All patients were assessed for safety, those who received at least one dose of PG545 were evaluated for efficacy. Safety assessment included the incidence of all adverse events (AEs), irrespective of relationship to study drug, according to the National Cancer Institute Common Terminology Criteria for Adverse Events, version 4.0, and the incidence of patients experiencing dose modifications and/or premature discontinuation of study drug. Dose-limiting toxicities (DLTs) used to determine the MTD were defined as occurring during Cycle 1 of treatment only and related to PG545 according to investigator assessment. If no DLT occurred in the first three subjects, the next three-subject cohort was enrolled at the next highest available dose level. If a single DLT occurred, an additional three subjects was enrolled at the same dose level. Dose escalation continued until two subjects of the cohort experienced a DLT; this was defined as the toxic dose level. The dose-escalation phase was completed and MTD determined by reducing the dose to the next lowest dose compared to the toxic dose and expanding this cohort to at least 6 subjects.

[1] = 150 mg, during or 1 h post-infusion, typical
[2] = Life threatening/Fatal, Unrelated, Safety Set

Structure (SMILES): CC(C)CCC[C@@H](C)[C@H]1CC[C@H]2[C@@H]3CC[C@H]4C[C@@H](O[C@@H]5O[C@H](COS(=O)(=O)O)[C@@H](O[C@H]6O[C@H](COS(=O)(=O)O)[C@@H](O[C@H]7O[C@H](COS(=O)(=O)O)[C@@H](O[C@H]8O[C@H](COS(=O)(=O)O)[C@@H](OS(=O)(=O)O)[C@H](OS(=O)(=O)O)[C@H]8OS(=O)(=O)O)[C@H](OS(=O)(=O)O)[C@H]7OS(=O)(=O)O)[C@H](OS(=O)(=O)O)[C@H]6OS(=O)(=O)O)[C@H](OS(=O)(=O)O)[C@H]5OS(=O)(=O)O)CC[C@]4(C)[C@H]3CC[C@]12C [PG545]
- Pyrexia, treatment-related AE (100 mg, N = 6): 1 (17) n (%)
- Dose-limiting toxicities (DLTs), number (150 mg cohort, first cycle): Three
- Acute pulmonary oedema, related AE leading to discontinuation (150 mg, N = 9): 1 (11) n (%)
- Acute pulmonary oedema, related serious AE (150 mg, N = 9): 1 (11) n (%)
- Acute pulmonary oedema, related severe AE (150 mg, N = 9): 1 (11) n (%)
- Blood cholesterol increased, related severe AE (150 mg, N = 9): 1 (11) n (%)
- Blood cholesterol increased, treatment-related AE (150 mg, N = 9): 1 (11) n (%)
- Blood pressure increased, related severe AE (150 mg, N = 9): 1 (11) n (%)
- Chills, related AE leading to discontinuation (150 mg, N = 9): 0 n (%)
- Chills, related severe AE (150 mg, N = 9): 1 (11) n (%)
- Chills, treatment-related AE (150 mg, N = 9): 4 (44) n (%)
- Decreased appetite, treatment-related AE (150 mg, N = 9): 2 (22) n (%)
- Diarrhoea, treatment-related AE (150 mg, N = 9): 1 (11) n (%)
- Epistaxis, related AE leading to discontinuation (150 mg, N = 9): 1 (11) n (%)
- Epistaxis, related serious AE (150 mg, N = 9): 1 (11) n (%)
- Epistaxis, related severe AE (150 mg, N = 9): 1 (11) n (%)
- Fatigue, related severe AE (150 mg, N = 9): 0 n (%)
- Fatigue, treatment-related AE (150 mg, N = 9): 1 (11) n (%)
- Headache, treatment-related AE (150 mg, N = 9): 0 n (%)
- Hypercholesterolemia, treatment-related AE (150 mg, N = 9): 0 n (%)
- Hyperlipidaemia, related severe AE (150 mg, N = 9): 0 n (%)
- Hypertension, related AE leading to discontinuation (150 mg, N = 9): 1 (11) n (%)
- Hypertension, related serious AE (150 mg, N = 9): 1 (11) n (%)
- Hypertension, related severe AE (150 mg, N = 9): 5 (56) n (%)
- Hypertension, treatment-related AE (150 mg, N = 9): 5 (56) n (%)
- Hypovolaemia, related serious AE (150 mg, N = 9): 0 n (%)
- Infusion-related reaction, related serious AE (150 mg, N = 9): 1 (11) n (%)
- Infusion-related reaction, related severe AE (150 mg, N = 9): 1 (11) n (%)
- Infusion-related reaction, treatment-related AE (150 mg, N = 9): 5 (56) n (%)
- Injection site reaction, treatment-related AE (150 mg, N = 9): 0 n (%)
- Nausea, treatment-related AE (150 mg, N = 9): 1 (11) n (%)
- Pyrexia, related AE leading to discontinuation (150 mg, N = 9): 0 n (%)
- Pyrexia, related serious AE (150 mg, N = 9): 0 n (%)
- Pyrexia, related severe AE (150 mg, N = 9): 0 n (%)
- Pyrexia, treatment-related AE (150 mg, N = 9): 1 (11) n (%)
- Diastolic pressure during hypertension events, increase to [1]: 100 mm Hg
- Systolic pressure during hypertension events, increase to [1]: 170 mm Hg
- Blood pressure, substantial increase in one subject, to (150 mg, one subject): 200/126
- TEAE: At least one event (Life threatening/Fatal, Related, Safety Set): 0 (0.0%)
- TEAE: At least one event [2]: 5 (21.7%)
- TEAE: Death [2]: 2 (8.7%)
- TEAE: Fatigue [2]: 1 (4.3%)
- TEAE: GGT increased [2]: 3 (13.0%)
- TEAE: General disorders and administration site conditions [2]: 3 (13.0%)
- TEAE: Hyperuricaemia [2]: 1 (4.3%)
- TEAE: Investigations [2]: 3 (13.0%)
- TEAE: Metabolism and nutritional disorders [2]: 1 (4.3%)
- TEAE: Abdominal distension (Mild, Related, Safety Set): 1 (4.3%)
- TEAE: Abdominal pain lower (Mild, Related, Safety Set): 1 (4.3%)
- TEAE: Anaemia (Mild, Related, Safety Set): 1 (4.3%)
- TEAE: Asthenia (Mild, Related, Safety Set): 1 (4.3%)
- TEAE: At least one event (Mild, Related, Safety Set): 16 (70.0%)
- TEAE: Back pain (Mild, Related, Safety Set): 1 (4.3%)
- TEAE: Blood ALP increased (Mild, Related, Safety Set): 1 (4.3%)
- TEAE: Blood and lymphatic system disorders (Mild, Related, Safety Set): 1 (4.3%)
- TEAE: Blood cholesterol increased (Mild, Related, Safety Set): 1 (4.3%)
- TEAE: Blood triglycerides increased (Mild, Related, Safety Set): 1 (4.3%)
- TEAE: Chills (Mild, Related, Safety Set): 2 (8.7%)
- TEAE: Constipation (Mild, Related, Safety Set): 1 (4.3%)
- TEAE: Cough (Mild, Related, Safety Set): 1 (4.3%)
- TEAE: Decreased appetite (Mild, Related, Safety Set): 4 (17.4%)
- TEAE: Diarrhoea (Mild, Related, Safety Set): 4 (17.5%)
- TEAE: Diplopia (Mild, Related, Safety Set): 1 (4.3%)
- TEAE: Dizziness (Mild, Related, Safety Set): 1 (4.3%)
- TEAE: Dysgeusia (Mild, Related, Safety Set): 1 (4.3%)
- TEAE: Dyspepsia (Mild, Related, Safety Set): 1 (4.3%)
- TEAE: Eye disorders (Mild, Related, Safety Set): 1 (4.3%)
- TEAE: Fall (Mild, Related, Safety Set): 1 (4.3%)
- TEAE: Fatigue (Mild, Related, Safety Set): 1 (4.3%)
- TEAE: Gastrointestinal disorders (Mild, Related, Safety Set): 8 (34.8%)
- TEAE: General disorders and administration site conditions (Mild, Related, Safety Set): 11 (47.8%)
- TEAE: Headache (Mild, Related, Safety Set): 2 (8.7%)
- TEAE: Hypercholesterolaemia (Mild, Related, Safety Set): 1 (4.3%)
- TEAE: Hypovolaemia (Mild, Related, Safety Set): 1 (4.3%)
- TEAE: Infusion related reaction (Mild, Related, Safety Set): 1 (4.3%)
- TEAE: Injection site reaction (Mild, Related, Safety Set): 2 (8.7%)
- TEAE: Injury, poisoning and procedural complications (Mild, Related, Safety Set): 2 (8.7%)
- TEAE: Investigations (Mild, Related, Safety Set): 3 (13.0%)
- TEAE: Low density lipoprotein increased (Mild, Related, Safety Set): 1 (4.3%)
- TEAE: Malaise (Mild, Related, Safety Set): 1 (4.3%)
- TEAE: Metabolism and nutritional disorders (Mild, Related, Safety Set): 5 (21.7%)
- TEAE: Musculoskeletal and connective tissue disorders (Mild, Related, Safety Set): 2 (8.7%)
- TEAE: Musculoskeletal pain (Mild, Related, Safety Set): 1 (4.3%)
- TEAE: Nausea (Mild, Related, Safety Set): 4 (17.5%)
- TEAE: Nervous system disorders (Mild, Related, Safety Set): 3 (13.0%)
- TEAE: Oxygen saturation decreased (Mild, Related, Safety Set): 1 (4.3%)
- TEAE: Peripheral coldness (Mild, Related, Safety Set): 1 (4.3%)
- TEAE: Pyrexia (Mild, Related, Safety Set): 5 (21.7%)
- TEAE: Rash (Mild, Related, Safety Set): 1 (4.3%)
- TEAE: Rash erythematous (Mild, Related, Safety Set): 1 (4.3%)
- TEAE: Respiratory, thoracic and mediastinal disorders (Mild, Related, Safety Set): 1 (4.3%)
- TEAE: Skin and subcutaneous tissue disorders (Mild, Related, Safety Set): 2 (8.7%)
- TEAE: Vascular disorders (Mild, Related, Safety Set): 1 (4.3%)
- TEAE: Abdominal distension (Mild, Unrelated, Safety Set): 1 (4.3%)
- TEAE: Abdominal pain (Mild, Unrelated, Safety Set): 2 (8.7%)
- TEAE: Abdominal pain upper (Mild, Unrelated, Safety Set): 1 (4.3%)
- TEAE: Anxiety (Mild, Unrelated, Safety Set): 2 (8.7%)
- TEAE: Ascites (Mild, Unrelated, Safety Set): 1 (4.3%)
- TEAE: Back pain (Mild, Unrelated, Safety Set): 2 (8.7%)
- TEAE: Blood ALP increased (Mild, Unrelated, Safety Set): 1 (4.3%)
